System: PAO1
Test: Salt sensitivity assay
Type: cell-based, P. aeruginosa

Polymyxin B showed an MBC (CaCl2 (2.5 mM)) of 2 µM, an MIC (CaCl2 (2.5 mM)) of 2 µM and an MBC (FeCl3 (4 μM)) of 1 µM. The MIC (FeCl3 (4 μM)) was 1 µM, the MBC (KCl (4.5 mM)) was 1 µM and the MIC (KCl (4.5 mM)) was 1 µM. It also gave an MBC (MgCl2 (1 mM)) of 1 µM, an MIC (MgCl2 (1 mM)) of 1 µM and an MBC (NH4Cl (6 μM)) of 1 µM. It also gave an MIC (NH4Cl (6 μM)) of 1 µM, an MBC (NaCl (150 mM)) of 0.5 µM and an MIC (NaCl (150 mM)) of 0.5 µM. The MBC (ZnCl2 (8 mM)) was 1 µM and the MIC (ZnCl2 (8 mM)) was 1 µM.

Source: paper PMC11322164 (Scientific Reports, 2024)
